According to patent US9328083B2, “2-aminated methylene or 2-esterified methylene tanshinone derivatives, and preparation method and application thereof” (HANGZHOU BENSHENG PHARMACEUTICAL CO., LTD., priority 2011, dated 2016):
In brackets after ≈: the same amount, converted by molar mass.

What was measured:
[1] = system: U87 MG (malignant glioma cell); assay: MTT growth inhibition of human solid tumor cells, 72 h; assay type: cell-based; conditions: Homo sapiens, U-87 MG, U87-MG, 72 h
Protocol: (§1) Hep-2 (laryngeal carcinoma), A549 (human lung cancer), CaES-17 (esophageal cancer cell), PC-3 (prostate cancer), CNE (nasopharyngeal carcinoma cell), and SK-OV-3 (ovarian cancer cell), all of which are purchased from China Center For Type Culture Collection; RKO (human colon adenocarcinoma cell), MGC 803 (human gastric cancer cell), MG63 (osteosarcoma) and U87 MG (malignant glioma cell), all of which are purchased from Fuxiang Bio-tech Co. Ltd., Shanghai, China; PANC-1 (pancreatic cancer), Hep G2 (human liver cancer cell), Becap37 (human breast cancer cell) and Hela (human cervical cancer cell), all of which are donated by Cancer Research Institute of Zhejiang University, China.
(§2) The standard sample of tanshinone I (TA) and the 2-aminated methylene or 2-esterified methylene tanshinone I derivatives of the present invention are sufficiently dissolved with dimethylsulfoxide to produce a stock solution of 10 mg/mL, which is refrigerated at 4° C. and stored in dark, and is diluted with a cell culture medium to the desired concentration prior to experimentation.
(§3) Obtaining 4000 well-growing human solid tumor cells and inoculating them into wells of a 96-well cell culture plate. The culture medium is DMEM High Glucose cell culture medium containing 10% fetal bovine serum. The plate is placed in a carbon dioxide cell incubator (5% CO2) at 37° C. and incubated for 24 hours. After adding the 2-aminated methylene or 2-esterified methylene tanshinone I derivatives of different concentrations and mixing uniformly, the plate is placed in a carbon dioxide cell incubator (5% CO2) at 37° C. and incubated for 72 hours. Then the viable cell concentration is determined by the MTT method.

[2] = system: SK-OV-3 (ovarian cancer cell); assay: as above; assay type: cell-based; conditions: Homo sapiens, SK-OV-3, 72 h
Protocol: as §1, §2, §3

[3] = system: Becap37 (human breast cancer cell); assay: as above; assay type: cell-based; conditions: Homo sapiens, Becap-37, 72 h
Protocol: as §1, §2, §3

[4] = system: Hep-2 (laryngeal carcinoma); assay: as above; assay type: cell-based; conditions: Homo sapiens, HEp-2, 72 h
Protocol: as §1, §2, §3

[5] = system: Hep G2 (human liver cancer cell); assay: as above; assay type: cell-based; conditions: Homo sapiens, HepG2, Hep G2, 72 h
Protocol: as §1, §2, §3

[6] = system: CNE (nasopharyngeal carcinoma cell); assay: as above; assay type: cell-based; conditions: Homo sapiens
Protocol: as §1, §2, §3

PC-3 (prostate cancer) = assay: as above; assay type: cell-based; conditions: Homo sapiens, PC-3, 72 h
Protocol: as §1, §2, §3

[7] = system: MGC 803 (human gastric cancer cell); assay: as above; assay type: cell-based; conditions: Homo sapiens, MGC-803, 72 h
Protocol: as §1, §2, §3

MG63 (osteosarcoma) = assay: as above; assay type: cell-based; conditions: Homo sapiens, MG-63, 72 h
Protocol: as §1, §2, §3

[8] = system: CaES-17 (esophageal cancer cell); assay: as above; assay type: cell-based; conditions: Homo sapiens, CaEs17, CaEs-17, 72 h
Protocol: as §1, §2, §3

A549 (human lung cancer) = assay: as above; assay type: cell-based; conditions: Homo sapiens, A549, 72 h
Protocol: as §1, §2, §3

[9] = system: Hela (human cervical cancer cell); assay: as above; assay type: cell-based; conditions: Homo sapiens, HeLa, 72 h
Protocol: as §1, §2, §3

[10] = system: RKO (human colon adenocarcinoma cell); assay: as above; assay type: cell-based; conditions: Homo sapiens
Protocol: as §1, §2, §3

[11] = system: PANC-1 (pancreatic cancer); assay: as above; assay type: cell-based; conditions: Homo sapiens, PANC-1, 72 h
Protocol: as §1, §2, §3

[12] = system: Kasumi-1 (acute myeloid leukemia M2 type, AML-M2); assay: MTT growth inhibition of leukemia cells, 72 h; assay type: cell-based, human; conditions: Homo sapiens, Kasumi-1, 72 h
Excerpt: (§4) Leukemia cell lines: leukemia cell lines: K562/adr (drug-resistant, chronic myeloid leukemia, CML), NB4 (acute promyelocytic leukemia, AML), Kasumi-1 (acute myeloid leukemia M2 type, AML-M2), and Jurkat (acute lymphoblastic leukemia, ALL), all of which are donated by Cancer Research Institute of Zhejiang University, China; and H9 (acute lymphoblastic leukemia, ALL), which is purchased from China Center for Type Culture Collection (CCTCC).
as §2
(§5) Obtaining 6000 well-growing leukemia cells and inoculating them into wells of a 96-well cell culture plate. The culture medium is the RPMI-1640 cell culture medium containing 10% fetal bovine serum. After adding on the second day the 2-aminated methylene or 2-esterified methylene tanshinone I derivatives of different concentrations and mixing uniformly, placing the plate in a carbon dioxide cell incubator (5% CO2) at 37° C. and incubated for 72 hours. Then the viable cell concentration is determined by MTT method.

[13] = system: K562/adr (drug-resistant, chronic myeloid leukemia, CML); assay: MTT growth inhibition of leukemia cells, 72 h; assay type: cell-based, human; conditions: Homo sapiens, K562/Adr
Excerpt: as §4, §2, §5

[14] = system: H9 (acute lymphoblastic leukemia, ALL); assay: MTT growth inhibition of leukemia cells, 72 h; assay type: cell-based, human; conditions: Homo sapiens, H9, 72 h
Excerpt: as §4, §2, §5

[15] = system: NB4 (acute promyelocytic leukemia, AML); assay: MTT growth inhibition of leukemia cells, 72 h; assay type: cell-based, human; conditions: Homo sapiens, NB4, 72 h
Excerpt: as §4, §2, §5

[16] = system: Jurkat (acute lymphoblastic leukemia, ALL); assay: MTT growth inhibition of leukemia cells, 72 h; assay type: cell-based, human; conditions: Homo sapiens, 72 h
Excerpt: as §4, §2, §5

[17] = system: RPMI8226 (multiple myeloma); assay: MTT growth inhibition of multiple myeloma cells, 72 h; assay type: cell-based, human; conditions: Homo sapiens, RPMI 8226, 72 h
Protocol: Myeloma cell lines: RPMI8226 (multiple myeloma), purchased from Fuxiang Bio-tech Co. Ltd., Shanghai, China.
as §2
Obtaining 6000 well-growing myeloma cells as above and inoculating them into wells of a 96-well cell culture plate. The culture medium is the 1640 cell culture medium containing 10% fetal bovine serum. After adding the 2-aminated methylene or 2-esterified methylene tanshinone I derivatives of different concentrations and mixing uniformly, placing the plate in a carbon dioxide cell incubator (5% CO2) at 37° C. and incubated for 72 hours. Then the viable cell concentration is determined by MTT method.

Cc1c(CN(C)CCOC(=O)C(C)(C)C)oc2c1C(=O)C(=O)c1c-2ccc2c(C)cccc12 [BS-TA-62]
IC50 ([1]; read-out: IC50): 3.2 µg/mL (≈ 7.15 µM) | IC90 ([1]; read-out: IC90): 7.65 µg/mL (≈ 17.1 µM) | IC50 ([2]; read-out: IC50): > 16 µg/mL | IC90 ([2]; read-out: IC90): > 16 µg/mL | IC50 ([3]; read-out: IC50): 5.04 µg/mL (≈ 11.3 µM) | IC90 ([3]; read-out: IC90): 11.6 µg/mL (≈ 26 µM) | IC50 ([4]; read-out: IC50): 6.81 µg/mL (≈ 15.2 µM) | IC90 ([4]; read-out: IC90): > 16 µg/mL | IC50 ([5]; read-out: IC50): 5.41 µg/mL (≈ 12.1 µM) | IC90 ([5]; read-out: IC90): 22.6 µg/mL (≈ 50.4 µM) | IC50 ([6]; read-out: IC50): 1.8 µg/mL (≈ 4.02 µM) | IC90 ([6]; read-out: IC90): 18 µg/mL (≈ 40.2 µM) | IC50 (PC-3 (prostate cancer); read-out: IC50): 3.21 µg/mL (≈ 7.17 µM) | IC90 (PC-3 (prostate cancer); read-out: IC90): 8.76 µg/mL (≈ 19.6 µM) | IC50 ([7]; read-out: IC50): 6.3 µg/mL (≈ 14.1 µM) | IC90 ([7]; read-out: IC90): 14.1 µg/mL (≈ 31.4 µM) | IC50 (MG63 (osteosarcoma); read-out: IC50): 4.88 µg/mL (≈ 10.9 µM) | IC90 (MG63 (osteosarcoma); read-out: IC90): > 16 µg/mL | IC50 ([8]; read-out: IC50): 6.33 µg/mL (≈ 14.1 µM) | IC90 ([8]; read-out: IC90): 11.8 µg/mL (≈ 26.4 µM) | IC50 (A549 (human lung cancer); read-out: IC50): 3.3 µg/mL (≈ 7.37 µM) | IC90 (A549 (human lung cancer); read-out: IC90): 21.4 µg/mL (≈ 47.7 µM) | IC50 ([9]; read-out: IC50): 9.26 µg/mL (≈ 20.7 µM) | IC90 ([9]; read-out: IC90): > 16 µg/mL | IC50 ([10]; read-out: IC50): 0.47 µg/mL (≈ 1.05 µM) | IC90 ([10]; read-out: IC90): > 16 µg/mL | IC50 ([11]; read-out: IC50): 1.42 µg/mL (≈ 3.17 µM) | IC90 ([11]; read-out: IC90): 16 µg/mL (≈ 35.8 µM) | IC50 ([12]; read-out: IC50): 0.42 µg/mL (≈ 0.938 µM) | IC90 ([12]; read-out: IC90): 0.97 µg/mL (≈ 2.17 µM) | IC50 ([13]; read-out: IC50): 0.78 µg/mL (≈ 1.74 µM) | IC90 ([13]; read-out: IC90): 3.48 µg/mL (≈ 7.78 µM) | IC50 ([14]; read-out: IC50): 0.6 µg/mL (≈ 1.34 µM) | IC90 ([14]; read-out: IC90): 1.8 µg/mL (≈ 4.02 µM) | IC50 ([15]; read-out: IC50): 1.42 µg/mL (≈ 3.17 µM) | IC90 ([15]; read-out: IC90): 3.85 µg/mL (≈ 8.6 µM) | IC50 ([16]; read-out: IC50): 0.89 µg/mL (≈ 1.99 µM) | IC90 ([16]; read-out: IC90): 3.47 µg/mL (≈ 7.75 µM) | IC50 ([17]; read-out: IC50): 2.64 µg/mL (≈ 5.9 µM) | IC90 ([17]; read-out: IC90): 7.68 µg/mL (≈ 17.2 µM)
